Source: patent US11865125B2, “APKC inhibitors and methods of treating a neurodegenerative disease or disorder” (UNIVERSITY OF SOUTH FLORIDA, priority 2016, dated 2024)
Entries after “also recorded” stand apart in the source; their conditions may differ.

What was measured:
β-secretase (BACE1) [1] = test: brain β-secretase activity (BACE1) in mice; assay type: in vivo, mouse
Text: Mouse Studies. Brain samples were obtained from normal and insulin-resistant mice and monkeys used previously, and includes mice originally used in studies of insulin signaling and resistance in liver: (a) 4-6 month old C57Bl/6 mice used in studies of high-fat-feeding [USF Vivarium] [6]; 4-6 month-old male C57Bl/6 ob/ob and lean ob+ mice (Jackson Labs, Bar Harbor, Maine); and (c) 10-12 month-old C57Bl/6 Het-MλKO mice [USF Vivarium] [8]. Males and females were comparably present in experimental groups, and sex didn't appreciably alter combined findings. Hepatic alterations, clinical characteristics and ameliorating effects of liver-selective aPKC inhibitors were reported previously. […] Where indicated, Het-MλKO were injected subcutaneously (SC) once daily for 8 days with saline or 1H-imidazole-4-carboxamide,5-amino]-(2,3-dihydroxy-4-[(phosphono-oxy)methyl]cyclopentane-[1R-(1a,2b,3b,4a)] (ICAPP) 0.4 mg/kg body weight) in saline, to inhibit hepatic aPKC, and thus diminish aPKC-dependent expression of hepatic gluconeogenic and lipogenic enzymes, and thereby reduce serum insulin levels to near-normal. Where indicated normal mice were given a single SC injection of saline or saline containing 1.5 mg/kg ICAPP to follow time-related alterations in brain signaling factors. Where indicated, mice were treated intraperitoneally (IP) with insulin (1 U/kg body weight) or vehicle 15-min before euthanization by administration of Xylazine/Ketamine, followed by whole body perfusion with phosphate-buffered saline and rapid removal of brain and other tissues.
(§1) Tissue Preparations. As described, mouse brains were hemisected sagittally, and one-half was frozen in liquid N2, stored at −80° C., and samples thereof were homogenized in buffer containing 0.25M sucrose, 20 mM Tris/HCl (pH, 7.5), 2 mmol/l EGTA, 2 mM EDTA, 1 mM phenlysulfonoylfluoride (PMSF), 20 μg/ml leupeptin, 10 μg/ml aprotinin, 2 mM Na4P2O7, 2 mM Na3VO4, 2 mM NaF, and 1 μM microcystin, and then supplemented with 1% TritonX-100, 0.6% Nonidet and 150 mM NaCl.
(§2) β-Secretase Activity (BACE1; beta-site APP-cleaving enzyme-1). β-Secretase was measured was measured using a kit from Thermo-Fisher.

β-secretase (BACE1) [2] = test: β-secretase activity (BACE1) in LA1-5s neuroblastoma cells; assay type: cell-based, human; details: LA1-5s cells
Protocol: (§3) Relative bar values in panel a are mean±SEM of 6 determinations. Asterisks: *, P<0.05; **, P<0.01; ***, P<0.001 (ANOVA). Values in panel b are means of 2-4 determinations.
(§4) Shown here are Mean±SEM (N=4) values relative to the mean initial basal or insulin-stimulated level of indicated immunoreactive protein/peptide. Asterisks: *, P<0.05; **, P<0.01; ***, P<0.001 (ANOVA).
as §2

Akt = Akt activity in LA1-5s neuroblastoma cells; assay type: cell-based, human; details: LA1-5s cells, 200 nM insulin
Protocol: as §3, §4
Western Analyses. As described, Western analyses were conducted with rabbit antisera or mouse monoclonal antibodies (mMab), using: anti-aPKC (Santa Cruz Biotechnologies, Santa Cruz, CA); anti-phospho-threonine-560/555-PKC-ζ/λ/ι (Invitrogen, Carlsbad, CA); anti-p-serine-256-FoxO1 and anti-FoxO1 (Abnova, Walnut, CA); anti-Akt (mMab), anti-phospho-serine-473-Akt, anti-phospho-serine-9-GSK3P anti-GSK313, anti-phospho-serine-253-FoxO3a, anti-FoxO3a, anti-phospho-serine-256-FoxO1, anti-phospho-serine-193-FoxO4; anti-FoxO1, anti-phospho-serine-2448-mTOR, anti-mTOR, anti-β-amyloid (anti-5-10 kDa-Aβ1-40/42) and anti-amyloid precursor protein (anti-120 kDa-APP) (Cell Signaling Technologies, Danvers, MA); and anti-phospho-serine-202-tau, anti-phospho-threonine-231-tau (Gene Tex, Irvine, CA). Samples from experimental groups were compared on the same blots, and routinely checked with loading controls. Note that: insulin-sensitive 70 kDa aPKC is largely PKC-ζ in mouse brain and orthologous PKC-ι (98% aa homology) in monkey and other primate brains; brain PKC-ζ exists largely as a 50 kDa moiety that, lacking a regulatory domain, is constitutively-active and unresponsive to insulin.

[3] = Het-MλKO mice, reported previously; cited from earlier work
[4] = system: Akt substrates FOXO1, FOXO3a, GSK3β, and mTOR; test: phosphorylation of Akt substrates in mouse brain; assay type: in vivo; details: Het-MλKO mice, s.c. once daily for 8 days (ICAPP 0.4 mg/kg, ATM 60 mg/kg)
Text: Mouse Studies. Brain samples were obtained from normal and insulin-resistant mice and monkeys used previously, and includes mice originally used in studies of insulin signaling and resistance in liver: (a) 4-6 month old C57Bl/6 mice used in studies of high-fat-feeding [USF Vivarium] [6]; 4-6 month-old male C57Bl/6 ob/ob and lean ob+ mice (Jackson Labs, Bar Harbor, Maine); and (c) 10-12 month-old C57Bl/6 Het-MλKO mice [USF Vivarium] [8]. […] Where indicated normal mice were given a single SC injection of saline or saline containing 1.5 mg/kg ICAPP to follow time-related alterations in brain signaling factors. Where indicated, mice were treated intraperitoneally (IP) with insulin (1 U/kg body weight) or vehicle 15-min before euthanization by administration of Xylazine/Ketamine, followed by whole body perfusion with phosphate-buffered saline and rapid removal of brain and other tissues.
as §1
Western Analyses. […]

In the case of `NC(=O)c1ncn([C@@H]2C[C@H](COP(=O)(O)O)[C@@H](O)[C@H]2O)c1N` [ICAPP], the “resting/basal brain β-secretase activity” value (β-secretase (BACE1) [1]; Het-MλKO mice, ICAPP 0.4 mg/kg s.c. once daily for 8 days) is reported as “reduced resting/basal β-secretase activity to near-normal levels”, the “acute insulin-stimulated increases in brain β-secretase activity” value (β-secretase (BACE1) [1]; Het-MλKO mice, ICAPP 0.4 mg/kg s.c. once daily for 8 days, insulin 1 U/kg i.p. 15 min) is reported as “fully blocked” and the “insulin-dependent brain β-secretase activity” value (β-secretase (BACE1) [1]; normal mice, single s.c. dose of ICAPP 1.5 mg/kg, insulin 1 U/kg i.p. 15 min before killing) is reported as “time-related, well-correlated decreases; also recorded: blocked acute effects of insulin”. The “effect on metformin-induced increase in β-secretase activity” value (β-secretase (BACE1) [2]) was “dose-dependently inhibited”, the “effect on insulin-stimulated β-secretase activity” value (β-secretase (BACE1) [2]; 200 nM insulin) was “dose-dependent decreases” and the “effect on stimulatory effects of insulin on Akt activity” value (Akt) was “without altering”. For the same compound, the “serum insulin levels / hyperinsulinemia” value [3] was “fully/sufficiently improved; also recorded: reduced serum insulin levels in Het-MλKO mice to normal”, the “resting/basal phosphorylation of Akt substrates in brain” value [4] was “diminished” and the “acute insulin-stimulated phosphorylation of Akt substrates in brain” value ([4]; insulin 1 U/kg i.p. 15 min) was “restored ability of insulin; also recorded: fully able”.
